# Values of other authors as cited in patent publication US20190151293A1, “PHARMACEUTICAL COMPOSITION COMPRISING A NON-PURINE SELECTIVE INHIBITOR OF XANTHINE OXIDASE AND METHOD FOR THE PREPARATION THEREOF” (PHARMATHEN S.A., priority 2016, published 2019).
# Read-outs that look alike come from different tables or passages of the source.
# How the values were obtained:
# [1] = test system: other enzymes involved in purine or pyrimidine metabolism; details: at therapeutic concentrations
# [2] = target: xanthine oxidase (XO) (Homo sapiens, UniProt P47989); details: oxidised and reduced forms of XO
# xanthine oxidase (XO), sequence (P47989 whole entry): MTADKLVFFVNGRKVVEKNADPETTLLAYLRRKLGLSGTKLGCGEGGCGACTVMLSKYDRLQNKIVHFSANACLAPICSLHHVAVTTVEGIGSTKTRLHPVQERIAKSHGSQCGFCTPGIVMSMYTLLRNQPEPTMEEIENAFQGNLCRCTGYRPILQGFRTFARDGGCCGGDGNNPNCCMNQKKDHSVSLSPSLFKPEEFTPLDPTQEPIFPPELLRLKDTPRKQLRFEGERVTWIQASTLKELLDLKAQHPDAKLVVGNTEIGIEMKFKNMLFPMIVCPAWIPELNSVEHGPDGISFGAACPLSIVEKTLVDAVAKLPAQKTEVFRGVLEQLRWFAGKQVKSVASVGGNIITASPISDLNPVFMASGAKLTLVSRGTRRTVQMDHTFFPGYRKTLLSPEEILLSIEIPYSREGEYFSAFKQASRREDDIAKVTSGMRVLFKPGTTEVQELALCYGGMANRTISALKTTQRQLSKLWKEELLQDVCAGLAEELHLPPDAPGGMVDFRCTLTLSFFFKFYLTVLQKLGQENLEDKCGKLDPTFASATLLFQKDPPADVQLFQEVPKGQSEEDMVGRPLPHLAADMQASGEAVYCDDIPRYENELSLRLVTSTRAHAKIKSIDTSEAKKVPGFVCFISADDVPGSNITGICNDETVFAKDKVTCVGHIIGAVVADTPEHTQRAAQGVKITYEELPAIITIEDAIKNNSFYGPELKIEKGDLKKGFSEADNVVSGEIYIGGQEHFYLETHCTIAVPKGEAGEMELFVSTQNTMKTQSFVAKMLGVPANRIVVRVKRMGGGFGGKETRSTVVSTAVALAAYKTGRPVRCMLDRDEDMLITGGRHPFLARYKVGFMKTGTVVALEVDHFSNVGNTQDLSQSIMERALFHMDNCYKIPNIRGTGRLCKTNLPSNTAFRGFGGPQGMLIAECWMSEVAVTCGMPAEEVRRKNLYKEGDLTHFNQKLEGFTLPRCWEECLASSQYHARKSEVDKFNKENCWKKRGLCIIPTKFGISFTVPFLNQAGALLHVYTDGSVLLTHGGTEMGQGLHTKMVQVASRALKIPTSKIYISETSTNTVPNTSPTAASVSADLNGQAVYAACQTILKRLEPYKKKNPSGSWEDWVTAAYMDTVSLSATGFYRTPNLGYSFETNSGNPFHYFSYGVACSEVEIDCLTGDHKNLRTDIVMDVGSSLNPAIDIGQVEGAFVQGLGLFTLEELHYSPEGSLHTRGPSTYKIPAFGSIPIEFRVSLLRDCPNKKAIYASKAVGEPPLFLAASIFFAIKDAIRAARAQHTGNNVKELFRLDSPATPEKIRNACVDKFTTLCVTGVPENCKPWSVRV
SMILES,Inhibition of other enzymes involved in purine or pyrimidine metabolism [1],Inhibition of XO [2],"Solubility, dependence on pH (higher in alkalic media)",Solubility (in dimethylformamide),Solubility (in dimethylsulfoxide),Solubility (in ethanol),Solubility (in water),"Solubility of the crystal form, in words"
"Cc1nc(-c2ccc(OCC(C)C)c(C#N)c2)sc1C(=O)O [Febuxostat, 2-(3-cyano-4-isobutoxyphenyl)-4-methyl-1,3-thiazole-5-carboxylic acid]",does not inhibit,inhibit both the oxidised and reduced forms of XO,pH dependent,freely soluble,soluble,sparingly soluble,practically insoluble,–
Cc1nc(-c2ccc(OCC(C)C)c(C#N)c2)sc1C(=O)O [Form C],–,–,–,–,–,–,–,good solubility
